In patent US20260191845A1, “PYRIDINE-2-THIOL 1-OXIDE DERIVATIVES AND THEIR USE FOR TREATMENT OF MAMMALIAN INFECTIONS CAUSED BY MYCOBACTERIUM OR FUNGI” (priority 2022, published 2026):
“And” between values parts separate entries of the source, which are not always exact repeats. Identical values can stand only once. Like-named read-outs stand apart in the source and are kept apart here.

Key:
[1] = system: M. avium clinical isolate n. 1; test: REMA MIC90, broad spectrum of microorganisms; type: cell-based; settings: Mycobacterium avium, M. avium clinical isolate n. 1, resistant to linezolid, read-out: MIC to Compound 2
Procedure: (§1) To determine the in vitro activity of compounds (MIC90) against Mycobacterium abscessus ATCC 19977, the resazurin reduction microplate assays (REMA) is performed. Briefly, serial 2-fold dilutions of drug are prepared in 96-well microtiter plates (Fluoronunc, Thermo Fisher, Waltham, MA, USA) in 100 μL of Middlebrook 7H9 medium (Difco), supplemented with 10% OADC without addition of Tween 80. Then, M. abscessus log-phase cultures were diluted (OD600=0.02) and added in the 96-well microtiter plate. Growth controls containing no compound and sterile controls without inoculum are also included. Also, a compound known to be active against M. abscessus growth is included as positive control. After 1 day of incubation at 37° C., 10 μL of resazurin (0.025% w/v) is added to each well, and bacterial viability is assessed after a further 24 h of incubation using a Fluoroskan™ Microplate Fluorometer (Thermo Fisher Scientific, Waltham, MA, USA; excitation=544 nm, emission=590 nm). Bacterial viability was calculated as a percentage of resazurin turnover in the absence of compound (MIC90). is used as positive control. Results are expressed as the average of at least three independent replicates and presented on the following Table 1.
(§2) By using the same procedure, the compound according to Example B (compound 2) was tested on broad spectrum of microorganisms and the corresponding results are presented in the below Table 2.

[2] = system: M. abscessus clinical isolate n. 6; test: REMA MIC90, broad spectrum of microorganisms; type: cell-based; settings: Mycobacteroides abscessus, M. abscessus clinical isolate n. 6, resistant to clarithromycin, moxifloxacin, doxycycline, linezolid, read-out: MIC to Compound 2
Procedure: as §1, §2

[3] = system: M. abscessus clinical isolate n. 10; test: REMA MIC90, broad spectrum of microorganisms; type: cell-based; settings: Mycobacteroides abscessus, M. abscessus clinical isolate n. 10, resistant to moxifloxacin, doxycycline, read-out: MIC to Compound 2
Procedure: as §1, §2

[4] = system: Pseudomonas aeruginosa PAO1; test: REMA MIC90, broad spectrum of microorganisms; type: cell-based; settings: Pseudomonas aeruginosa PAO1, in presence of efflux inhibitor, read-out: MIC to Compound 2
M. massiliense 2005-0524 = test: REMA MIC90, broad spectrum of microorganisms; type: cell-based; settings: Mycobacteroides abscessus, 20050524, M. massiliense 2005-0524, Wild-type, read-out: MIC to Compound 2
[5] = Subacute toxicity, 14 days per oral administration in mice; type: in vivo
Procedure: (§3) Acute and subacute toxicity of compound 2 was experimentally studied for intragastric administration in white mice. […] The compound was solubilized in saline to be administrated to animals.
Evaluation of subacute toxicity of compound 2 observation time after 14 days per oral administration.
Experimental animals: 14 C57BL/6 male white mice, 7 weeks old, weight 20-22 g.
The following experimental procedure was used: • administration route of the compound: per os; • dosage 50 mg/kg once a day for 14 days; • volume introduced into 0.3 ml/20 g (15 ml/kg); • data recorded: behavior, weight changes, rectal temperature, mortality.

Aspergillus niger = test: Antifungal agar well diffusion assay; settings: 20 μL water solution in 4 mm well
Procedure: (§4) The well diffusion test was performed using Casitone agar. The inoculum used was prepared using the Candida or Aspergillus strains from a 24-hour culture on Sabouraud dextrose agar, a suspension was made in a sterile saline solution (0.85%). The turbidity of the suspension was adjusted with a spectrophotometer at 530 nm to obtain a final concentration to match that of a 0.5 McFarland standard (0.5-2.5×10^3). 20 mL of Bacto-casitone were melted, cooled to 55° C. and then inoculated with 1 mL of the organism suspension. The inoculated agar was poured into the assay plate (9 cm in diameter) and allowed to cool down on a leveled surface.

M. bolletii 1999-0888 = test: REMA MIC90, broad spectrum of microorganisms; type: cell-based; settings: Mycobacteroides abscessus, 19990888, M. bolletii 1999-0888, Wild-type, read-out: MIC to Compound 2
[6] = system: Staphylococcus aureus ATCC 25923; test: REMA MIC90, broad spectrum of microorganisms; type: cell-based; settings: ATCC25923, read-out: MIC to Compound 2
Penicillium notatum = test: Antifungal agar well diffusion assay; settings: 20 μL water solution in 4 mm well
Procedure: as §4

[7] = Acute toxicity, intragastric administration in mice; type: in vivo, C57BL/6 male white mice; settings: per os, doses lower than 300 mg/kg, 14 days observation
Procedure: as §3
Experimental animals: 35 C57BL/6 male white mice, 7 weeks old, weight 20-22 g. The following experimental procedure was used: • administration route of the compound: per os; • number of doses: […]; • dosage: 100-200-250-300-500-600-750 mg/kg; • volume introduced into 0.3 ml/20 g (15 ml/kg); • data recorded: behavior, weight changes, rectal temperature, mortality.

[8] = system: Mycobacterium abscessus ATCC 19977; test: REMA MIC90 against M. abscessus ATCC 19977; type: cell-based; settings: Mycobacteroides abscessus, ATCC19977
Procedure: as §1, with “Briefly,” for “To determine the in vitro activity of compounds (MIC90) against Mycobacterium abscessus ATCC 19977, the resazurin reduction microplate assays (REMA) is performed. Briefly,”, “Also, a compound known to be active against M. abscessus growth is included as positive control.” left out, “Bacterial viability was calculated as a percentage of resazurin turnover in the absence of compound (MIC90). is used as positive control.” left out

[9] = type: physicochemical; settings: at a temperature of 20±3° C., from accelerated aging at 55±2° C.
Procedure: The aim of the study is to investigate the physical and chemical properties of a substances at elevated temperature and to establish an experimental expiration date for the substances (saline form vs base form).
• 5-(ethoxycarbonyl)pyridine-2-thiolate 1-oxide (base form) • sodium 5-(ethoxycarbonyl)pyridine-2-thiolate 1-oxide (compound 2—salt form)
• Storage temperature: (55±2° C.)
Double layer polyethylene bag. The package is placed in a bag made of laminated aluminum foil. Each package is wrapped in wrapping paper. […]

M. bovis BCG Pasteur = test: microbe, parasite or virus in culture; type: cell-based; settings: Mycobacterium tuberculosis variant bovis BCG, read-out: MIC to Compound 2
[10] = mice, per os, 50 mg/kg once a day for 14 days

CCOC(=O)c1ccc([S-])[n+]([O-])c1.[Na+] [Compound 2, Sodium 5-(ethoxycarbonyl)pyridine-2-thiolate 1-oxide]
MIC [1]: 500 mg/L | MIC [2]: 500 mg/L | MIC [3]: 500 mg/L | MIC [4]: 1000 mg/L | MIC (M. massiliense 2005-0524): 500 mg/L | Weight of mice, Experimental group, 28 Jan. 2021, M ± m ([5]; group mean, after 14 days of 50 mg/kg per os daily): 21.13 ± 0.308 gramm | Weight of mice, Experimental group, 13 Jan. 2021, M ± m ([5]; group mean, start of 50 mg/kg per os daily treatment): 20.71 ± 0.4 gramm | Weight of individual mice, Experimental group, 28 Jan. 2021 ([5]; individual mice, after 14 days of 50 mg/kg per os daily, 50 mg/kg): 21.1 gramm and 19.5 gramm and 20.9 gramm and 21.7 gramm and 21.5 gramm (2×) and 22.4 gramm and 20.5 gramm | Weight of individual mice, Experimental group, 13 Jan. 2021 ([5]; individual mice, start of 50 mg/kg per os daily treatment, 50 mg/kg): 20.1 gramm and 22.1 gramm and 19.2 gramm and 19.7 gramm and 20.9 gramm and 20.5 gramm and 22.8 gramm and 20.4 gramm | Subacute toxicity: general state and behavior [5, 10]: did not cause changes in the general state and behavior of the mice | Subacute toxicity: mass of mice, experimental vs control group [5, 10]: No significant differences | Subacute toxicity: animal death ([5]; mouse, in vivo, 50 mg/kg): there were no cases of animal death | Inhibition Zone of Test Microorganism (Aspergillus niger): 28 mm | MIC (M. bolletii 1999-0888): 500 mg/L | MIC [6]: 8000 mg/L | Inhibition Zone of Test Microorganism (Penicillium notatum): 15 mm | Acute toxicity: animal death [7]: there were no cases of animal death | Acute toxicity: general state and behavior [7]: did not cause changes in the general state and behavior of the mice | MIC ([8]; MIC90, REMA, Table 1, read-out: MIC in M. abscessus ATCC 19977): 125 mg/L | MIC ([8]; MIC90, M. abscessus ATCC 19977, Wild-type, Table 2, read-out: MIC to Compound 2): 250 mg/L | Experimental shelf life [9]: about 2 years | MIC (M. bovis BCG Pasteur): 62.5 mg/L
